The values that follow are results of earlier work, collected in patent US20260053764A1, “COMPOSITION FOR PREVENTING DETERIORATION IN COGNITIVE FUNCTION AND/OR IMPROVING COGNITIVE FUNCTION” (PHARMA FOODS INTERNATIONAL CO., LTD., priority 2020, published 2026).

The series deals with cognitive function of elderly people. To be noted: continuous ingestion for a year; cited from earlier work.

On to `CC1=C(/C=C/C(C)=C/C=C/C(C)=C/C=C/C=C(C)/C=C/C=C(C)/C=C/C2=C(C)C[C@@H](O)CC2(C)C)C(C)(C)C[C@H](O)C1` [zeaxanthin], for which the “reasoning measured by the CNS Vital Signs examination method” value is recorded as “no improvement”.

With `CC1=C[C@H](O)CC(C)(C)[C@H]1/C=C/C(C)=C/C=C/C(C)=C/C=C/C=C(C)/C=C/C=C(C)/C=C/C1=C(C)C[C@@H](O)CC1(C)C` [lutein], the “reasoning measured by the CNS Vital Signs examination method” value is recorded as “no improvement”.
